Experimental data as given in article PMC4688937, “Heterologous expression of the isopimaric acid pathway in Nicotiana benthamiana and the effect of N-terminal modifications of the involved cytochrome P450 enzyme” (Journal of Biological Engineering, 2015).

Assays:
diTPS-ISO = target: T1, diTPS-ISO (Picea abies, UniProt Q675L5); test: transient expression in N. benthamiana leaves, product by GC-MS; settings: endogenous GGPP in leaves, in planta; cyclisation to isopimaradiene
T1 construct: gene TPS-ISO; C-terminal FLAG tag, pEAQ-HT, transiently expressed in Nicotiana benthamiana leaves; own plastid targeting; 92 kDa
T1 sequence (Q675L5 69-867): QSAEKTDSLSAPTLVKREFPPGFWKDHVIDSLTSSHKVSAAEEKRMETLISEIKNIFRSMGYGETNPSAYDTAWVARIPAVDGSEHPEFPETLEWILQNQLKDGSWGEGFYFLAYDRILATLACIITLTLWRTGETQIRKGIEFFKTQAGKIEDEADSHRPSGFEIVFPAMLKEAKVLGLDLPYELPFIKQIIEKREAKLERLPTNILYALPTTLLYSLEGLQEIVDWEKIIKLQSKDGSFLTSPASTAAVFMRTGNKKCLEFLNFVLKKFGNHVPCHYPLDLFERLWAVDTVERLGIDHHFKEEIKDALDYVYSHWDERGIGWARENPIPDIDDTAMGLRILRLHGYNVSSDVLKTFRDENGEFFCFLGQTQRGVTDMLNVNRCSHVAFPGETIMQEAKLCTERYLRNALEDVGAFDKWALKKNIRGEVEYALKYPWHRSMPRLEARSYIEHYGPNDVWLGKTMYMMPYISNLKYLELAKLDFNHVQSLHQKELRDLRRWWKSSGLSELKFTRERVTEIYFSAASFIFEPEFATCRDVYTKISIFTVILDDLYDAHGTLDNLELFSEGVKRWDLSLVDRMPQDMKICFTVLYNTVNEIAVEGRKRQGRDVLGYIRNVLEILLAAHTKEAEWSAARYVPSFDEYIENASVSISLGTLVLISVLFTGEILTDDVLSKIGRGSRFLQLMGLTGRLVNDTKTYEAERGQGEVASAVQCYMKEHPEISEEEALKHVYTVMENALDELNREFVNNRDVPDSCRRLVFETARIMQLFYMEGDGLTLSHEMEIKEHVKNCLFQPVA

CYP720B4 = target: T2, CYP720B4 (Picea sitchensis, UniProt E5FA70); test: co-expression with diTPS-ISO in N. benthamiana leaves, GC-MS and LC-MS; settings: in planta, endogenous redox partner
T2 construct: ER; 55 kDa

ΔTm-CYP720B4 = target: T3, ΔTm-CYP720B4 (Picea sitchensis, UniProt E5FA70); test: co-expression with diTPS-ISO, DXS and GGPPs in N. benthamiana leaves, GC-FID and LC-MS; settings: in planta, endogenous redox partner
T3 construct: N-terminal membrane domain (first 37 amino acids) removed, new start Met from primer, FLAG tag, expressed in Nicotiana benthamiana leaves; 51 kDa

Tp-Barnes-CYP720B4 = target: T4, Tp-Barnes-CYP720B4 (Picea sitchensis, UniProt E5FA70, DEL3-9/V13A, form not given); test: as above; settings: in planta, chloroplast-targeted enzyme
T4 construct: Barnes-modified N-terminus preceded by transit peptide (N-terminal 52 residues of Arabidopsis thaliana ferredoxin FedA, GenBank AY128936), partly processed; FLAG tag; chloroplast-targeted in Nicotiana benthamiana leaves; 60 kDa precursor

Barnes-CYP720B4 = target: T5, Barnes-CYP720B4 (Picea sitchensis, UniProt E5FA70, DEL3-9/V13A, form not given); test: as above; settings: in planta, endogenous redox partner
T5 construct: Barnes-modified N-terminus (text: residues 3-9 deleted, V13A); 54 kDa
T5 sequence (E5FA70 entry or part of it DEL3-9/V13A, form open): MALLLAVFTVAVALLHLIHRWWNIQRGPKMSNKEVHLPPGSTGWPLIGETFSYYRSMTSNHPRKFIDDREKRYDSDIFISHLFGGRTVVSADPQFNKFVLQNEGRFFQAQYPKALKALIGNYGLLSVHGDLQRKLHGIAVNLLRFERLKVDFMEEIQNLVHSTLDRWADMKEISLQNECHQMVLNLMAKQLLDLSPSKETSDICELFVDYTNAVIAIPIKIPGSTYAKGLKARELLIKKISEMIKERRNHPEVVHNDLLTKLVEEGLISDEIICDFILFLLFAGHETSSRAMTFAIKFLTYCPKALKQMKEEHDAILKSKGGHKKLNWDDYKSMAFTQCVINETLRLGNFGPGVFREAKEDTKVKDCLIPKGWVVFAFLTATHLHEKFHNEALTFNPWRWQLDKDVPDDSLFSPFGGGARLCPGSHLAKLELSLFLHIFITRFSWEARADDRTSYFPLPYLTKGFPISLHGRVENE

T2 sequence (E5FA70 entry or part of it): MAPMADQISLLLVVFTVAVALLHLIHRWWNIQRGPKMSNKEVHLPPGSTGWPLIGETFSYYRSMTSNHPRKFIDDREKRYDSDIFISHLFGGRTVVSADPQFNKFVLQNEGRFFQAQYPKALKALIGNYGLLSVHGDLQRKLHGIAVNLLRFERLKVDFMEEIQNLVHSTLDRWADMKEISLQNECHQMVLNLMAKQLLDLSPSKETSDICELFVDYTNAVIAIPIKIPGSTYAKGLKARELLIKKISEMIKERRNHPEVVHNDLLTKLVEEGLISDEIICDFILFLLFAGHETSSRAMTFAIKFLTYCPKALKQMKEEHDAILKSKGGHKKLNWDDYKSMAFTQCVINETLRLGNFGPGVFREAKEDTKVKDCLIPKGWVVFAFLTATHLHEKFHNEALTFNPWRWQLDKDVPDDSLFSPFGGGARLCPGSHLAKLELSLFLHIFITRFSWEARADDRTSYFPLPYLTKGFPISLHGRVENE
T4 sequence (E5FA70 entry or part of it DEL3-9/V13A, form open): as the sequence (E5FA70 entry or part of it DEL3-9/V13A, form open) above
T3 sequence (E5FA70 entry or part of it, stated change not applied): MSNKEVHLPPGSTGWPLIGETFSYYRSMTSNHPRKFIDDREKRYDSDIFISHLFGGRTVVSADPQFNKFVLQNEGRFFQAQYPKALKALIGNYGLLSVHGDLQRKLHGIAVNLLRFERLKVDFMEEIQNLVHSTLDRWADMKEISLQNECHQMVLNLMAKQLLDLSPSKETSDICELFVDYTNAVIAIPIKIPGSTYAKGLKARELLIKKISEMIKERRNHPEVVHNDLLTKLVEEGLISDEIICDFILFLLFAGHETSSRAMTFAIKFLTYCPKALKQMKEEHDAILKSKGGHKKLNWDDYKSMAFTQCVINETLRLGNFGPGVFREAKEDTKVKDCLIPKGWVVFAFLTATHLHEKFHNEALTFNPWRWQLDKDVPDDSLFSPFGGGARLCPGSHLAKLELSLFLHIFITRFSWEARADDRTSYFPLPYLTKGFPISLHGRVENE

CC(C)=CCC/C(C)=C/CC/C(C)=C/CC/C(C)=C/COP(=O)(O)OP(=O)(O)O [GGPP]
transient expression in N. benthamiana leaves, product by GC-MS (diTPS-ISO): The expressed diTPS-ISO is active as confirmed by the formation of isopimaradiene

C=C[C@@]1(C)CC[C@H]2C(=CC[C@H]3C(C)(C)CCC[C@]23C)C1 [isopimaradiene]
co-expression with diTPS-ISO in N. benthamiana leaves, GC-MS and LC-MS (CYP720B4): Upon co-expression with CYP720B4, isopimaradiene was depleted and isopimaric acid accumulated | transient expression in N. benthamiana leaves, product by GC-MS (diTPS-ISO): active as confirmed by the formation of isopimaradiene in the infiltrated leaves | co-expression with diTPS-ISO, DXS and GGPPs in N. benthamiana leaves, GC-FID and (ΔTm-CYP720B4): CYP720B4 remains active even after complete removal of the transmembrane domain | co-expression with diTPS-ISO, DXS and GGPPs in N. benthamiana leaves, GC-FID and (Tp-Barnes-CYP720B4): In contrast, the Tp-Barnes-CYP720B4 was active | co-expression with diTPS-ISO, DXS and GGPPs in N. benthamiana leaves, GC-FID and (Barnes-CYP720B4): Barnes-CYP720B4 activity does not seem to deteriorate after the N-terminal modification

C=C[C@@]1(C)CC[C@H]2C(=CC[C@@H]3[C@]2(C)CCC[C@@]3(C)C(=O)O)C1 [isopimaric acid]
co-expression with diTPS-ISO in N. benthamiana leaves, GC-MS and LC-MS (CYP720B4): isopimaradiene was depleted and isopimaric acid accumulated (Fig. 2c, d), indicating efficient conversion
